This assay has as its system P388 leukemia ip, CD2F1 mice, survival T/C. The assay is described as follows: NCI In Vivo Anticancer Drug Screen. Data for tumor model P388 Leukemia (intraperitoneal) in CD2F1 (CDF1) mice. To be noted: endpoint: median survival time, higher = longer survival. In a few lines:
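Mice carrying the transplanted tumor received test compound or vehicle. Survival was recorded in each group, and the value is the treated-group measurement divided by that of the vehicle-treated control group.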

Where [1] appears, read: dose: 6.25 mg/kg/injection, schedule: Q01DX005 (ip), vehicle: saline.
Where [2] appears, read: dose: 25.0 mg/kg/injection, schedule: Q01DX005 (ip), vehicle: saline.
[3] abbreviates: dose: 50.0 mg/kg/injection, schedule: Q01DX005 (ip), vehicle: saline.
Where [4] appears, read: dose: 12.5 mg/kg/injection, schedule: Q01DX005 (ip), vehicle: saline with Tween-80.
Setting [5] is: dose: 25.0 mg/kg/injection, schedule: Q01DX005 (ip), vehicle: saline with Tween-80.
Where [6] appears, read: dose: 50.0 mg/kg/injection, schedule: Q01DX009 (ip), vehicle: saline with Tween-80.
Where [7] appears, read: dose: 50.0 mg/kg/injection, schedule: Q01DX005 (ip), vehicle: Klucel (hydroxypropylcellulose) (HPC).
Where [8] appears, read: dose: 50.0 mg/kg/injection, schedule: Q01DX005 (ip), vehicle: saline with Tween-80.

The text below walks through data of PubChem BioAssay AID330 (DTP/NCI, 2004).

Values joined by “and” are separate entries in the source; they are usually repeats but may differ in a detail not shown here. Equal entries are not always repeated. Toxic doses and inconclusive results are not listed.

For the compound `O=C(O)c1cc(C(=O)O)c(C(=O)O)cc1C(=O)O.[NH2-].[NH2-].[NH2-].[NH2-].[Pt+2].[Pt+2]`, the T/C (dose: 0.78 mg/kg/injection, schedule: Q01DX005 (ip), vehicle: water) was 106 % of control; the T/C (dose: 1.56 mg/kg/injection, schedule: Q01DX005 (ip), vehicle: suspension in saline) was 108 % of control; the T/C (dose: 1.56 mg/kg/injection, schedule: Q01DX005 (ip), vehicle: water) is 115 % of control; the T/C (dose: 3.12 mg/kg/injection, schedule: Q01DX005 (ip), vehicle: saline) was 113 % of control; the T/C (dose: 3.13 mg/kg/injection, schedule: Q01DX005 (ip), vehicle: water) was 119 % of control; the T/C under setting [1] is 105 % of control. Also, the T/C was 118 % of control (dose: 6.25 mg/kg/injection, schedule: Q01DX005 (ip), vehicle: suspension in saline); 110 % of control (dose: 9.0 mg/kg/injection, schedule: Q01DX005 (ip), vehicle: suspension in saline); 161 % of control (dose: 12.5 mg/kg/injection, schedule: Q01DX005 (ip), vehicle: suspension in saline); 166 % of control (dose: 12.5 mg/kg/injection, schedule: Q01DX005 (ip), vehicle: water); 153 % of control under setting [2]; 174 % of control and 176 % of control (dose: 25.0 mg/kg/injection, schedule: Q01DX005 (ip), vehicle: suspension in saline). In addition, the T/C by setting is: (dose: 41.67 mg/kg/injection, schedule: Q01DX005 (ip), vehicle: suspension in saline) 150 % of control; under setting [3], 186 % of control.

As for `CCOc1ccn(C2C=CC(=O)O2)c(=O)n1` (centres undefined), the T/C is, setting by setting: under setting [1], 102 % of control and 105 % of control; (dose: 12.5 mg/kg/injection, schedule: Q01DX005 (ip), vehicle: saline) 110 % of control and 112 % of control; under setting [2], 111 % of control and 118 % of control; under setting [3], 118 % of control and 120 % of control.

As to `COc1cccc(CCC(=O)O)c1OC`, the T/C was 103 % of control (dose: 25.0 mg/kg/injection, schedule: Q01DX009 (ip), vehicle: water); 100 % of control (dose: 50.0 mg/kg/injection, schedule: Q01DX009 (ip), vehicle: water); 108 % of control (dose: 100.0 mg/kg/injection, schedule: Q01DX009 (ip), vehicle: water); 91 % of control (dose: 200.0 mg/kg/injection, schedule: Q01DX009 (ip), vehicle: water); 92 % of control (dose: 400.0 mg/kg/injection, schedule: Q01DX009 (ip), vehicle: water).

As for `O=C(O)c1ccc(NC(=S)NNC(=O)c2ccncc2)cc1`, the T/C (dose: 100.0 mg/kg/injection, schedule: Q04DX002 (ip), vehicle: Klucel (hydroxypropylcellulose) (HPC)) was 99 % of control; the T/C (dose: 200.0 mg/kg/injection, schedule: Q04DX002 (ip), vehicle: Klucel (hydroxypropylcellulose) (HPC)) was 102 % of control; the T/C (dose: 400.0 mg/kg/injection, schedule: Q04DX002 (ip), vehicle: Klucel (hydroxypropylcellulose) (HPC)) was 100 % of control.

In the case of `CC/C(=N\NC(=S)SC)c1ccccn1`, the T/C (dose: 6.25 mg/kg/injection, schedule: Q01DX005 (ip), vehicle: saline with Tween-80) was 106 % of control; the T/C under setting [4] is 94 % of control and 96 % of control and 97 % of control; the T/C under setting [5] is 105 % of control and 110 % of control and 94 % of control.

As to `O=C(NC1CCCCC1)NS(=O)(=O)c1ccc(CCNC(=O)c2cccc3c2OCC3)cc1`, the T/C by setting is: under setting [6], 100 % of control; (dose: 100.0 mg/kg/injection, schedule: Q01DX009 (ip), vehicle: saline with Tween-80) 99 % of control; (dose: 200.0 mg/kg/injection, schedule: Q01DX009 (ip), vehicle: saline with Tween-80) 98 % of control.

Regarding `CCn1c2ccc(NC(=O)OC(C)C)cc2c2c3[nH]c(=O)c4cccn4c3ccc21`, the T/C by setting is: (dose: 100.0 mg/kg/injection, schedule: Q01DX001 (ip), vehicle: saline with Tween-80) 87 % of control; (dose: 200.0 mg/kg/injection, schedule: Q01DX001 (ip), vehicle: saline with Tween-80) 87 % of control; (dose: 400.0 mg/kg/injection, schedule: Q01DX001 (ip), vehicle: saline with Tween-80) 92 % of control.

Consider `ONC(=Nc1ccc2ccccc2c1)C(=Nc1ccc2ccccc2c1)NO`, for which the T/C is, setting by setting: under setting [7], 95 % of control; (dose: 100.0 mg/kg/injection, schedule: Q01DX005 (ip), vehicle: Klucel (hydroxypropylcellulose) (HPC)) 90 % of control; (dose: 200.0 mg/kg/injection, schedule: Q01DX005 (ip), vehicle: Klucel (hydroxypropylcellulose) (HPC)) 94 % of control.

Turning to `CC(=O)N1C(=O)Cc2ccccc21`, the T/C is 94 % of control (dose: 100.0 mg/kg/injection, schedule: Q01DX001 (ip), vehicle: Klucel (hydroxypropylcellulose) (HPC)); 90 % of control (dose: 200.0 mg/kg/injection, schedule: Q01DX001 (ip), vehicle: Klucel (hydroxypropylcellulose) (HPC)); 91 % of control (dose: 400.0 mg/kg/injection, schedule: Q01DX001 (ip), vehicle: Klucel (hydroxypropylcellulose) (HPC)).

Regarding `O=C(Nc1cccc(NC(=O)Nc2cc(C(F)(F)F)ccc2Cl)c1)Nc1cc(C(F)(F)F)ccc1Cl`, the T/C was 89 % of control (dose: 60.0 mg/kg/injection, schedule: Q01DX005 (ip), vehicle: Klucel (hydroxypropylcellulose) (HPC)); 91 % of control (dose: 120.0 mg/kg/injection, schedule: Q01DX005 (ip), vehicle: Klucel (hydroxypropylcellulose) (HPC)); 100 % of control (dose: 240.0 mg/kg/injection, schedule: Q01DX005 (ip), vehicle: Klucel (hydroxypropylcellulose) (HPC)).

Consider `NC1=NC2C(Cl)=CC=CC2S1` (centres undefined), for which the T/C is 109 % of control (dose: 50.0 mg/kg/injection, schedule: Q01DX009 (ip), vehicle: Klucel (hydroxypropylcellulose) (HPC)) and 107 % of control (dose: 100.0 mg/kg/injection, schedule: Q01DX009 (ip), vehicle: Klucel (hydroxypropylcellulose) (HPC)).

`CCC(C)(C)N=C(Nc1cccnc1)Nc1nccs1`: the T/C by setting is: (dose: 100.0 mg/kg/injection, schedule: Q04DX003 (ip), vehicle: saline with Tween-80) 92 % of control; (dose: 200.0 mg/kg/injection, schedule: Q04DX003 (ip), vehicle: saline with Tween-80) 94 % of control; (dose: 400.0 mg/kg/injection, schedule: Q04DX003 (ip), vehicle: saline with Tween-80) 87 % of control.

As for `O=C1NCCCCC1(Cl)Cl`, the T/C reads like this: under setting [4], 99 % of control; under setting [5], 101 % of control; under setting [8], 99 % of control and 103 % of control.

Take `N#CC(C(=O)C(=O)Nc1ccc(Cl)cc1Cl)c1c(Cl)cccc1Cl` (centres undefined): the T/C reads like this: (dose: 60.0 mg/kg/injection, schedule: Q01DX005 (ip), vehicle: saline with Tween-80) 100 % of control; (dose: 120.0 mg/kg/injection, schedule: Q01DX005 (ip), vehicle: saline with Tween-80) 101 % of control.

As for `O=C1c2cc([N+](=O)[O-])cc3cc([N+](=O)[O-])cc(c23)C(=O)N1CCNCCN1C(=O)c2cc([N+](=O)[O-])cc3cc([N+](=O)[O-])cc(c23)C1=O`, the T/C is 100 % of control and 123 % of control under setting [8]; 107 % of control (dose: 100.0 mg/kg/injection, schedule: Q01DX005 (ip), vehicle: saline with Tween-80); 105 % of control and 88 % of control (dose: 200.0 mg/kg/injection, schedule: Q01DX005 (ip), vehicle: saline with Tween-80).

Take `O=C1CSC(=S)N1/N=C/c1ccccc1`: the T/C by setting is: (dose: 25.0 mg/kg/injection, schedule: Q04DX002 (ip), vehicle: saline) 100 % of control; (dose: 50.0 mg/kg/injection, schedule: Q04DX002 (ip), vehicle: saline) 105 % of control; (dose: 100.0 mg/kg/injection, schedule: Q04DX002 (ip), vehicle: saline) 98 % of control.

As to `Cc1cnc(C#N)c(C#N)n1`, the T/C is, setting by setting: (dose: 6.25 mg/kg/injection, schedule: Q01DX005 (ip), vehicle: Klucel (hydroxypropylcellulose) (HPC)) 103 % of control; (dose: 12.5 mg/kg/injection, schedule: Q01DX005 (ip), vehicle: Klucel (hydroxypropylcellulose) (HPC)) 106 % of control; (dose: 25.0 mg/kg/injection, schedule: Q01DX005 (ip), vehicle: Klucel (hydroxypropylcellulose) (HPC)) 100 % of control; under setting [7], 116 % of control.

For `COc1ccc(/C(C#N)=C\c2ccco2)cc1`, the T/C was 111 % of control (dose: 50.0 mg/kg/injection, schedule: Q01DX009 (ip), vehicle: saline); 110 % of control (dose: 100.0 mg/kg/injection, schedule: Q01DX009 (ip), vehicle: saline); 101 % of control (dose: 200.0 mg/kg/injection, schedule: Q01DX009 (ip), vehicle: saline).

Turning to `CCCCNC(=S)NC(=O)c1ccccc1`, the T/C was 95 % of control (dose: 25.0 mg/kg/injection, schedule: Q01DX009 (ip), vehicle: saline with Tween-80) and 94 % of control under setting [6].
